Data taken from patent US6528518B2, “Treatment of depression with kappa receptor antagonists” (The McLean Hospital Corporation, priority 2000, dated 2003).
“Also recorded” adds a separate entry of the source.

Columns and labels:
[1] = system: rats; assay: Locomotor activity in automated activity chambers 24 hours after first FST; details: for Activity: high doses, vs vehicle (0 mg/kg), FIG. 3B; for Locomotor effects / non-specific motor function: after ICV injection, vs vehicle control, FIG. 6B
Experimental: To examine the effects of gene transfer and antidepressant therapy on locomotor activity, groups of rats were tested for 1 hour in automated activity chambers 24 hours after the first FST.

[2] = system: rats; assay: Forced swim test (FST), latency to become immobile on re-test; format: in vivo, rat; details: for Latencies to become immobile on the re-test day in the FST: standard antidepressants vs vehicle (0 mg/kg), FIG. 3A; for Latencies to become immobile in the FST: kappa antagonist given ICV (norBNI 5.0 or 20 μg), FIG. 5 and 6A
Experimental: Another symptom of clinical depression that can be modeled in rats is despair, a feeling of hopelessness. Symptoms of despair can be induced in rats using the forced swim test (FST), a highly validated model used to study antidepressant treatments.
The FST is a two day procedure in which rats swim under conditions in which escape is not possible. On the first day, the rats are forced to swim for 15 minutes. The rats initially search for an escape from the water, but eventually adopt a posture of immobility in which they make only the movements necessary to keep their heads above water. Upon re-testing one day later, latencies to become immobile—an indicator of how rapidly the rats “give up” in response to a familiar stressor—are decreased, which is inferred as despair. Standard antidepressants such as desipramine (DMI) and fluoxetine (FLX) extend latencies to become immobile. Drug efficacy in this animal model is predictive of antidepressant efficacy in humans.
CREB-mediated increases in dynorphin expression within the NAc underlie the decreases in the pleasurable effects of cocaine in the place conditioning paradigm: blockade of brain kappa opioid receptors (on which dynorphin acts) eliminates CREB-induced aversion to cocaine. To determine whether disruption of dynorphin function also eliminates CREB-induced despair in the FST, brain kappa receptors were blocked with either norBNI (nor-binaltorphimine) or GNTI (5′-guanidinyl-17-(cyclopropylmethyl)-6,7-dehydro-4,5α-epoxy-3,14-dihydroxy-6,7-2′,3′-indolomorphinan). […] As with CREB-induced anhedonia, dynorphin is critically involved in CREB-induced despair. Furthermore, they indicate that disruption of CREB function in this region may have antidepressant actions.

[3] = following systemic administration; cited from earlier work
[4] = humans; cited from earlier work
[5] = system: rats; assay: Cocaine place conditioning after HSV gene transfer into the NAc; format: in vivo, rat; details: cocaine 5.0 mg/kg IP, FIG. 2B
Experimental: Place conditioning was performed in a three compartment apparatus. During screening (day 0), rats were placed in the small (12×18×33 cm) central compartment and were allowed to explore the entire apparatus for 30 minutes. The compartments differed in floor texture, wall striping, and lighting. Rats showing no baseline preference were used for the study. Rats received bilateral microinjections (2.0 μl per side) at AP+1.7 mm, Lat±2.3 mm, and DV 6.8 mm. Injections were made over 10 minutes using a 26 gauge needle.
Behavioral testing began on day 3 after vector injection. On the first conditioning trial of each day, rats received saline (1 ml/kg, i.p.) and were confined to one of the large (24×18×33 cm) side compartments of the apparatus. After three hours, rats received cocaine (1.25 mg/kg, i.p.) and were confined to the other side compartment. Three types of conditioning session were used: a one hour pairing session where the animals were placed immediately into the apparatus immediately after treatment for one hour; 15 minute pairing session where the animals were placed immediately into the apparatus immediately after treatment for 15 minutes; or a delayed pairing session where the animals were placed in the apparatus for one hour following a 15 minute delay from drug exposure. […]

Structure (SMILES) | Activity [1] | Latencies to become immobile on the re-test day in the FST [2] | Locomotor effects / non-specific motor function [1] | Penetration of the blood-brain-barrier [3] | Latencies to become immobile in the FST [2] | other results
CNCCCN1c2ccccc2CCc2ccccc21 [DMI, desipramine] | decreased by high doses | increased |  |  |  | 
CNCCC(Oc1ccc(C(F)(F)F)cc1)c1ccccc1 (stereo not drawn) [FLX, fluoxetine] | decreased by high doses | increased |  |  |  | 
NC(N)=Nc1ccc2[nH]c3c(c2c1)C[C@@]1(O)[C@H]2Cc4ccc(O)c5c4[C@@]1(CCN2CC1CC1)[C@H]3O5 [GNTI, 5′-guanidinyl-17-(cyclopropylmethyl)-6,7-dehydro-4,5α-epoxy-3,14-dihydroxy-6,7-2′,3′-indolomorphinan] |  |  | Neither compound affected non-specific motor function | neither compound can penetrate the blood-brain-barrier | significantly longer latencies than the control group; also recorded: dose-dependently increased latencies to become immobile | Potency relative to norBNI for increasing latencies to become immobile in the FST ([2]; ICV, FIG. 6A): roughly equipotent to norBNI
CN1Cc2c(N)cccc2C(c2ccccc2)C1 (stereo not drawn) [Nomifensine] |  |  |  |  |  | Adverse reactions [4]: caused lethal allergic reactions in some people; Antidepressant efficacy in the clinic [4]: clinically effective antidepressant
COC(=O)[C@H]1[C@@H](OC(=O)c2ccccc2)C[C@@H]2CC[C@H]1N2C [cocaine] |  |  |  |  |  | Place preference, time spent in cocaine-associated environments ([5]; HSV-CREB group): no effect; Place preference, time spent in cocaine-associated environments ([5]; HSV-mCREB and vehicle groups): ~600 s
Oc1ccc2c3c1O[C@H]1c4[nH]c5c(c4C[C@@]4(O)[C@@H](C2)N(CC2CC2)CC[C@]314)C[C@@]1(O)[C@H]2Cc3ccc(O)c4c3[C@@]1(CCN2CC1CC1)[C@H]5O4 [norBNI, nor-binaltorphimine] |  |  | Neither compound affected non-specific motor function | neither compound can penetrate the blood-brain-barrier | dose-dependently increased latencies to become immobile; also recorded: significantly longer latencies than the control group | 
